Assay results taken from patent US11065335B2, “Methods of treating leukemia using compositions containing bis(benzylthio)octanoic acid and ion pairs thereof” (Rafael Pharmaceuticals, Inc., priority 2007, dated 2021).
Where a name gives a salt, the structure may show the parent alone.

Experiments:
[1] = test system: A2780 human ovarian cancer cells; assay: CellTiter Glo cell viability assay, A2780 cells; details: Homo sapiens, A2780, 24 h
Experimental: (§1) Two types of human tumor cells were used in this investigation: BXPC3 human pancreatic cancer cells and A2780 human ovarian cancer cells. The BXPC3 cells were originally obtained from American Type Cell Culture (ATCC). The ovarian tumor cells were gifts from Roswell Park Cancer Institute, Buffalo, N.Y. All tumor cells were maintained at 37° C. in a humidified 5% CO2 atmosphere in T75 tissue culture flasks containing 20 mL of Roswell Park Memorial Institute (RPMI) 1640 containing 2 mM L-glutamine, 10% fetal bovine serum (FBS) and 1% penicillin and streptomycin (100 IU/mL penicillin and 100 μg/mL streptomycin). The tumor cells were split at a ratio of 1:5 every 4-5 days by trypsinization and resuspended in fresh medium in a new flask. Cells were harvested for experiments at 70-90% confluency.
(§2) CPI-613 (i.e., 6,8-bis(benzylthio)octanoic acid) stock solutions at concentrations of 8, 4, 2, 1.5 and 0.5 mM were prepared in the appropriate vehicles. The molar ratio of vehicle to CPI-613 was maintained at 8:1. The corresponding vehicle concentrations were 64, 32, 16, 12, and 4 mM respectively. A sixty-four mM aliquot of vehicle was dissolved in 10 mL of water. Next, 8 mM of CPI-613 was added and the mixture was stirred until a clear solution was obtained. […] A 5 μL aliquot of this stock solution was added to 95 μL of tumor cells in media. Upon dilution in the wells, the corresponding drug concentrations were 400, 200, 100, 75 and 25 μM respectively.
(§3) For the sodium salt and potassium salt form of CPI-613, 1 equivalent of CPI-613 solid was dissolved in water. Sixty-two mg of CPI-613 (0.00016 mol) was added to 10 mL of water, then 165 μL of 1M NaOH or KOH was added and stirred until a clear solution was obtained. This gave a 16 mM solution. The resulting 16 mM solution was then serially diluted, thereby providing 8 mM and 4 mM solutions of the CPI-613 salt form. For the ammonium salt, vehicle to drug ratio was maintained at 8:1 and the formulation was prepared using procedures analogous to those described above in Section 2 relating to preparation of CPI-613 formulations in different vehicles.
(§4) CPI-613 formulated in 1M triethanolamine (TEA) was used as an internal control during formulation screening. To prepare a 16 mM of working stock of CPI-613, 50 mg/mL of CPI-613 (128.66 mM of CPI-613 in 1M TEA) was diluted in complete cell culture media containing 10% FBS. That is, 310 μL of a 128.66 mM solution of CPI-613 in 1M TEA was added to 2.19 mL of cell culture media. This stock was further diluted serially in complete media to give 8 mM, 4 mM 2 mM, 1.5 mM and 0.5 mM working solutions. On the day of testing, 5 μL of this working solution was added to 95 μL of cell culture media (20 fold dilution) resulting final concentrations of 400, 200, 100, 75 and 25 μM CPI-613, respectively. The ratio of CPI-613 to TEA was maintained at 1:8 ratio at all times.
(§5) The cell viability of CPI-613 formulations formulated at a ratio of 1:8, CPI-613 to vehicle, was assessed by exposing the A2780 ovarian tumor cells and BXPC3 human pancreatic cancer cells to the following CPI-613 concentrations: 400 μM (3200 μM vehicle), 200 μM (1600 μM vehicle), 100 μM (800 μM vehicle), 75 μM (600 μM vehicle) and 25 μM (200 μM vehicle) The impact of corresponding vehicles at 3200, 1600 and 800 μM concentrations was also tested in tumor cells for cell viability. […] CPI-613 in TEA was used as an internal control. The tumor cells were treated for 24 hrs with the test article in serum-containing medium. After 24 hrs of treatment the number of viable tumor cells was determined.
(§6) The number of cells targeted for the study was 4×10^3 per well in 100 μL of medium. The actual number of cells were counted and seeded in the wells of a 96 well-plate. The cells were incubated for ˜24 hrs before addition of CPI-613.
(§7) For each cell line the concentrations of test articles or vehicles specified above was used.

[2] = test system: A2780 ovarian tumor cells and BXPC3 human pancreatic cancer cells; assay: CellTiter Glo cell viability assay, text statements not split by cell line; type: cell-based; details: for cell kill: 24 hrs; for impact of vehicle on cancer cell killing: vehicle alone 3200 μM
Experimental: Two types of human tumor cells were used in this investigation: BXPC3 human pancreatic cancer cells and A2780 human ovarian cancer cells. The BXPC3 cells were originally obtained from American Type Cell Culture (ATCC). […] The tumor cells were split at a ratio of 1:5 every 4-5 days by trypsinization and resuspended in fresh medium in a new flask. Cells were harvested for experiments at 70-90% confluency.
The corresponding vehicle concentrations were 64, 32, 16, 12, and 4 mM respectively. A sixty-four mM aliquot of vehicle was dissolved in 10 mL of water. […] A 5 μL aliquot of this stock solution was added to 95 μL of tumor cells in media. Upon dilution in the wells, the corresponding drug concentrations were 400, 200, 100, 75 and 25 μM respectively.
This gave a 16 mM solution.
This stock was further diluted serially in complete media to give 8 mM, 4 mM 2 mM, 1.5 mM and 0.5 mM working solutions.
The tumor cells were treated for 24 hrs with the test article in serum-containing medium. After 24 hrs of treatment the number of viable tumor cells was determined.
The number of cells targeted for the study was 4×10^3 per well in 100 μL of medium. The actual number of cells were counted and seeded in the wells of a 96 well-plate.
For each cell line the concentrations of test articles or vehicles specified above was used. Five μL of the working solution for each test article or vehicle was added to 95 μL of cell culture media. The corresponding final concentrations of test articles are 20 fold more diluted than the working solutions. […] Additionally, a set of wells was treated with cell culture medium in the absence of cells to obtain a value for background luminescence.
The number of viable cells was determined by using the CellTiter Glo® Assay. Specifically, reagents were mixed and allowed to come to room temperature according to instructions from Promega, Inc. (Madison, Wis.). Cell plates were removed from the cell culture incubator and left on the bench for 30 minutes until they reach room temperature. A one-hundred μL aliquot CellTiter Glo® reagent was added to each well with a 12-channel Eppendorf pipettor. The cells were lysed by shaking the plate for 2 minutes in a shaker. Then, the cells were kept at room temperature for 10 minutes to stabilize the luminescent signal. The luminescence was measured using the FLUOstar OPTIMA plate reader (BMG Labtech, Inc., Durham, N.C.).
Data from luminescence readings was copied onto EXCEL spreadsheets, and cell growth relative to untreated cells was calculated, using the following equation: […]
The calculated values were imported into SigmaPlot, v11. A Four-Parameter Logistic Curve of the “mean relative cell growth as a function of the concentrations of the test articles” was generated. The EC50 values were determined from the curves. The R-squared value provides an indication of the degree of fitness of data to the curve. For each experiment, the percentage of viable cells was be expressed as the mean of 9 replicates. The average was calculated by taking the mean±standard deviation of the three experiments.

[3] = test system: BXPC3 human pancreatic cancer cells; assay: CellTiter Glo cell viability assay, BXPC3 cells; details: Homo sapiens, BXPC-3, 24 h
Experimental: as §1, §2, §3, §4, §5, §6, §7

[4] = Stability of the drug product by visual observation and HPLC; type: physicochemical; details: 50 mg/mL in 1M triethanolamine
Experimental: Bis-benzyl lipoate was provided in a concentrated form at a concentration of 50 mg/mL dissolved in 1M triethanolamine (TEA). The stability of the drug product was assessed by visual observation and by high-performance liquid chromatography (HPLC) assessment, performed at the beginning and the end of the study. […] The concentrated bis-benzyl lipoate solution was diluted to an appropriate concentration with 5% dextrose (D5W) to formulate 0.1, 1 and 10 mg/kg doses of bis-benzyl lipoate.

[5] = test system: Human H-460 Non Small Cell Lung Carcinoma (NSCLC) xenograft; assay: Anti-tumor activity in mice with Human H-460 NSCLC xenograft; type: in vivo
Experimental: A study to assess the dose and dosing schedule effects on the anti-tumor activity of bis-benzyl lipoate was undertaken. More specifically, the pharmaceutical formulations of bis-benzyl lipoate of Comparative Example 1, i.e., bis-benzyl lipoate dissolved in 1:1 Tween 80:ethanol and diluted with saline, were tested in mice with Human H-460 Non Small Cell Lung Carcinoma (NSCLC) xenograft. The pharmaceutical formulations were administered intraperitoneally (IP), given 1× or 3× weekly. Administration of bis-benzyl lipoate began when the average tumor size of the mice was ˜300 mm^3. There were originally eight treatment groups, with seven mice in each group, investigating three doses (0.1, 1 and 10 mg/kg) and two dosing schedules, as shown in Table 1 below.
Specifically, both subgroups of each treatment group were treated with the same dose of bis-benzyl lipoate as in the original protocol; however, one of the two subgroups was treated with a pharmaceutical formulation of bis-benzyl lipoate according to Comparative Example 1, i.e., bis-benzyl lipoate dissolved in 1:1 Tween 80:ethanol and diluted with saline, and the other subgroup was treated with a pharmaceutical formulation of bis-benzyl lipoate according to Example 1, i.e., dissolved in TEA and diluted with D5W. […]

[6] = in vitro; details: human, A2780 Cell Viability; for viability: 24 hrs
Experimental: as §1, §2, §3, §4, §5, §6, §7

[7] = in vitro; details: human, BXPC3 Cell Viability; for viability: 24 hrs
Experimental: as §1, §2, §3, §4, §5, §6, §7

In the case of `O=C(O)CCCCC(CCSCc1ccccc1)SCc1ccccc1` (stereo not drawn) [CPI-613 ammonium salt], the viability at 25 µM ([1]; read-out: A2780 Cell Viability (ammonium salt formulations), CPI-613 25 μM, ratio 1:8) is reported as greater than 95%, the viability at 75 µM ([1]; read-out: A2780 Cell Viability (ammonium salt formulations), CPI-613 75 μM, ratio 1:8) is reported as greater than 95% and the viability at 100 µM ([1]; read-out: A2780 Cell Viability (ammonium salt formulations), CPI-613 100 μM, ratio 1:8) is reported as 70 to 95%. For the same compound, the viability at 200 µM ([1]; read-out: A2780 Cell Viability (ammonium salt formulations), CPI-613 200 μM, ratio 1:8) was 10 to 30%, the viability at 400 µM ([1]; read-out: A2780 Cell Viability (ammonium salt formulations), CPI-613 400 μM, ratio 1:8) was less than 10% and the cell kill ([2]; ammonium salt formulation at 200 μM) was 70-80%. For the same compound, the cell kill ([2]; ammonium salt formulation at 400 μM) was 100%, the viability at 25 µM ([3]; read-out: BXPC3 Cell Viability (ammonium salt formulations), CPI-613 25 μM, ratio 1:8) was greater than 95% and the viability at 75 µM ([3]; read-out: BXPC3 Cell Viability (ammonium salt formulations), CPI-613 75 μM, ratio 1:8) was greater than 95%. The viability at 100 µM ([3]; read-out: BXPC3 Cell Viability (ammonium salt formulations), CPI-613 100 μM, ratio 1:8) was greater than 95%, the viability at 200 µM ([3]; read-out: BXPC3 Cell Viability (ammonium salt formulations), CPI-613 200 μM, ratio 1:8) was 30 to 70% and the viability at 400 µM ([3]; read-out: BXPC3 Cell Viability (ammonium salt formulations), CPI-613 400 μM, ratio 1:8) was less than 10%.
In the case of `O=C(O)CCCCC(CCSCc1ccccc1)SCc1ccccc1` (stereo not drawn) [bis-benzyl lipoate, 6,8-bis(benzylthio)octanoic acid], the “physical appearance (stability of the drug product, visual observation)” value ([4]; beginning and end of the study) is reported as “did not change”, the “purity by HPLC (stability of the drug product)” value ([4]; both at the beginning and the end of the study) is reported as greater than 99% and the “anti-tumor effects compared to vehicle treatment” value ([5]; Comparative Example 1 formulation (Tween 80/ethanol/saline), IP, 0.1, 1, 10 mg/kg, 1x or 3x weekly) is reported as “did not induce any anti-tumor effects”. The “H-460 tumor size versus 10 mg/kg in Comparative Example 1 formulation” value ([5]; Example 1 formulation (TEA/D5W), 0.1-10 mg/kg) was “may be smaller”.
`CC(O)CN(CC(C)O)CC(C)O` (stereo not drawn) [Triisopropanolamine] gave a viability ([6]; vehicle alone 800 μM) greater than 95%, a viability ([6]; vehicle alone 1600 μM) greater than 95% and a viability ([6]; vehicle alone 3200 μM) of 70 to 85%. For the same compound, the “impact of vehicle on cancer cell killing” value [2] was “appear to have come cell killing effects”, the viability ([7]; vehicle alone 800 μM) was greater than 95% and the viability ([7]; vehicle alone 1600 μM) was greater than 95%. It also gave a viability ([7]; vehicle alone 3200 μM) of 70 to 85%.
For `NC(CO)(CO)CO` [Tris base], the viability at 24 h, 800 μM ([6]; A2780 ovarian cancer cells, vehicle alone 800 μM) was greater than 95%, the viability at 24 h, 1600 μM ([6]; A2780 ovarian cancer cells, vehicle alone 1600 μM) was greater than 95% and the viability at 24 h, 3200 μM ([6]; A2780 ovarian cancer cells, vehicle alone 3200 μM) was greater than 95%. The “impact of vehicle on cancer cell killing” value [2] was “did not show a significant impact on cancer cell killing”, the viability at 24 h, 800 μM ([7]; BXPC3 pancreatic cancer cells, vehicle alone 800 μM) was greater than 95% and the viability at 24 h, 1600 μM ([7]; BXPC3 pancreatic cancer cells, vehicle alone 1600 μM) was greater than 95%. It also gave a viability at 24 h, 3200 μM ([7]; BXPC3 pancreatic cancer cells, vehicle alone 3200 μM) greater than 95%.
